Assay results as given in patent US20260049072A1, “HETEROCYCLIC COMPOUND FOR INDUCING DEGRADATION OF MUTANT KRAS PROTEIN” (Astellas Pharma Inc., priority 2022, published 2026).
Read-outs that look alike come from different tables or passages of the source.

Key:
[1] = test system: AsPC-1 cells; experiment: Non-anchorage-dependent cell growth inhibition (spheroid 3D culture), AsPC-1; assay type: cell-based; conditions: Homo sapiens, ASPC1, 144 h, read-out: AsPC-1 IC50
Procedure: Test Example 3: Evaluation of Non-Anchorage-Dependent Cell Growth Inhibitory Activity on Human KRAS G12V Mutant-Positive Pancreatic Cancer Line PA-TU-8902, Human KRAS G12D Mutant-Positive Pancreatic Cancer Line AsPC-1 or Human KRAS G12C Mutant-Positive Pancreatic Cancer Line MIA PaCa-2
The non-anchorage-dependent cell growth inhibitory activities of subject compounds were evaluated by spheroid 3D cell culture.
PA-TU-8902 cells, AsPC-1 cells or MIA PaCa-2 cells (RIKEN BRC, RCB2094) were seeded at 36 µL/well on a low-cell-adhesive round bottom 384-well plate (Prime Surface: from Sumitomo Bakelite) to give 5×10^2 cells per well. The PA-TU-8902 cells were under the same conditions as in Test Example 1-1, and the AsPC-1 cells were under the same conditions as in Test Example 1-2. For the MIA PaCa-2 cells, RPMI-1640 medium containing 10% fetal bovine serum was used in the presence of 5% CO2 at 37° C.
The next day, the subject compounds (6-9 points having final concentrations in the range of 3 μM to 0.3 nM) and DMSO, which was the solvent for the subject compounds, as a negative control were diluted 100-fold with a fresh medium and were each added at 4 μL per well. After culturing in the presence of 5% CO2 at 37° C. for six days, CellTiter-Glo 2.0 (from Promega) was added at 20 μL per well. After stirring with a plate mixer (from FINEPCR) at normal temperature for an hour, the luminescent signals were measured with ARVO X3 (from PerkinElmer).
With the signaling value in treatment with DMSO taken as 0% inhibition and with the signaling value in the medium alone without cells taken as 100% inhibition, the 50% inhibition values (IC50) were calculated by Sigmoid-Emax model nonlinear regression analysis.

[2] = target: T1, RAS G12V (Homo sapiens, UniProt P01116, G12V); experiment: RAS G12V degradation activity, Cell ELISA, PA-TU-8902; assay type: cell-based; conditions: PA-TU-8902 cells, 24 hours; for DC50: 100% = Example compound 17 at 1 μM, read-out: DC50 (RAS G12V 50% degradation value)
T1 construct: host or cells: PA-TU-8902 human pancreatic cancer cells
Procedure: Test Example 1-1: Evaluation of RAS G12V Degradation Activity on Human KRAS G12V Mutant-Positive Pancreatic Cancer Line PA-TU-8902
The RAS G12V degradation activities of subject compounds were evaluated by measuring the expression levels of RAS G12V by a Cell ELISA method.
PA-TU-8902 cells (DSMZ, ACC 179) were seeded at 36 μL per well on a 384-well plate (from Greiner bio-one) to give 1.5×10^4 cells per well. As for the cell culture conditions, DMEM medium (from Sigma-Aldrich) containing 10% fetal bovine serum (from Cytiva) was used in the presence of 5% CO2 at 37° C.
The next day, the subject compounds (10 points having final concentrations in the range of 3 μM to 0.1 nM), Example compound 17 of a final concentration of 1 μM as a positive control and dimethyl sulfoxide (DMSO), which was the solvent for the subject compounds, as a negative control were diluted 100-fold with a fresh medium and were each added at 4 μL per well, followed by culturing for 24 hours.
The next day, the culture supernatant was removed, and a 4% paraformaldehyde phosphate buffer solution (from FUJIFILM Wako) was added at 20 μL per well. The plate was allowed to stand for 30 minutes at room temperature to thus immobilize the cells. Then, the supernatant was removed, and 0.1% Triton X-100 (from Amersham Biosciences)-containing Phosphate buffered saline (PBS) was added at 20 μL per well. After allowing the plate to stand at room temperature for 10 minutes, the supernatant was removed, and the wells were washed twice in total by adding PBS at 25 μL per well and removing the supernatant. The washing operations below were performed in the same manner. Next, the supernatant was removed, and 0.5% sodium dodecyl sulfate (SDS; from ThermoFisher Scientific)-containing PBS was added at 20 μL per well. After allowing the plate to stand at room temperature for 10 minutes, the plate was centrifuged to remove the supernatant. After washing with PBS, the supernatant was removed by centrifugation, and a blocking solution (PVDF Blocking Reagent for Can Get Signal; from TOYOBO) was added at 20 μL per well. After allowing the plate to stand for 30 minutes at room temperature, the supernatant was removed by centrifugation, and a solution obtained by diluting an anti-Ras (G12V Mutant Specific) antibody (Ras (G12V Mutant Specific) (D2H12) Rabbit mAb; from Cell Signaling Technology; 500-fold dilution) and an anti-3-actin antibody (Anti-beta Actin antibody; from Abcam; 5,000-fold dilution) with Can Get Signal Solution 2 (from TOYOBO) was added at 15 μL per well as primary antibodies. The plate was allowed to stand overnight at 4° C.
The next day, the supernatant was removed by centrifugation, and the plate was washed with PBS. The supernatant was removed by centrifugation, and a solution obtained by diluting an anti-rabbit IgG antibody (IRDye 800CW Goat anti-Rabbit IgG; from LI-COR Biosciences) and an anti-mouse IgG antibody (IRDye 680RD Donkey anti-Mouse IgG; from LI-COR Biosciences) 1,000-fold with Can Get Signal Solution 2 was added at 15 μL per well as secondary antibodies. After allowing the plate to stand at room temperature for an hour, the supernatant was removed by centrifugation, and the plate was washed with PBS. After removing the supernatant, the plate was dried as it was with air at room temperature for two hours or more, and the 700-nm and 800-nm fluorescent signals were measured with Aerius (from LI-COR Biosciences).
With the RAS G12V signaling value at the time of addition of DMSO corrected with the signaling value of 3-actin taken as 0% and with the RAS G12V signaling value at the time of addition of Example compound 17 of a final concentration of 1 μM taken as 100%, the RAS G12V degradation rates were calculated. The 50% degradation values (DC50) were calculated by Sigmoid-Emax model nonlinear regression analysis.

[3] = KRAS G12D mutant-positive, 3D spheroid, six days, CellTiter-Glo 2.0

T1 sequence (P01116 1-188 isoform P01116-2 G12V): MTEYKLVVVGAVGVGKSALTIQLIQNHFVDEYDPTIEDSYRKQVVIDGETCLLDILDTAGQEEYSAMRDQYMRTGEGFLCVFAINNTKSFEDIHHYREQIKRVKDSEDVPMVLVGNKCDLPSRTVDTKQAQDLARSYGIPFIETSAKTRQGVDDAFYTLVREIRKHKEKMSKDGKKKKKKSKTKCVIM

Compound	IC50 [1, 3]	DC50 [2]	Dmax ([2]; PaTu 8902, RAS G12V, read-out: Dmax (degradation rate at the concentration with highest degradation activity))	IC50 [1]
CO[C@@H](C)COc1nc(NC2CN(C(=O)N3CC(CN(C)C)C3)C2)c2cc(C3CC3)c(-c3c(C)c(F)cc4[nH]ncc34)c(OCc3ccc(-c4cn([C@H](C(=O)N5C[C@H](O)C[C@H]5C(=O)N[C@@H](CO)c5ccc(-c6scnc6C)cc5)C(C)C)nn4)cc3)c2n1 (atropisomer, axis not shown) [Example 25]	14 nM	14 nM		
CO[C@@H](C)COc1nc(NC2CN(C(=O)O[C@H]3C[C@@H](N(C)C)C3)C2)c2cc(C3CC3)c(-c3c(C)c(F)cc4[nH]ncc34)c(OCc3ccc(-c4cn([C@H](C(=O)N5C[C@H](O)C[C@H]5C(=O)N[C@@H](CO)c5ccc(-c6ocnc6C)cc5)C(C)C)nn4)cc3)c2n1 (atropisomer, axis not shown; (M)) [Example 1, (1s,3R)-3-(dimethylamino)cyclobutyl 3-({(7M)-6-cyclopropyl-7-(6-fluoro-5-methyl-1H-indazol-4-yl)-8-{[4-(1-{(2S)-1-[(2S,4R)-4-hydroxy-2-({(1R)-2-hydroxy-1-[4-(4-methyl-1,3-oxazol-5-yl)phenyl]ethyl}carbamoyl)pyrrolidin-1-yl]-3-methyl-1-oxobutan-2-yl}-1H-1,2,3-triazol-4-yl)phenyl]methoxy}-2-[(2S)-2-methoxypropoxy]quinazolin-4-yl}amino)azetidine-1-carboxylate]	28 nM	31 nM		
CO[C@@H](C)COc1cc(OC2CN(C(=O)C3CN(C)C3)C2)c2cc(C3CC3)c(-c3c(C)c(F)cc4[nH]ncc34)c(OCc3ccc(-c4cn([C@H](C(=O)N5C[C@H](O)C[C@H]5C(=O)N[C@@H](CO)c5ccc(-n6cncn6)cc5)C(C)C)nn4)cc3)c2n1 (atropisomer, axis not shown) [Example 42]		30 nM		10 nM
CO[C@@H](C)COc1nc(N2CC(C#N)C2)c2cc(C3CC3)c(-c3c(C)c(F)cc4[nH]ncc34)c(OCc3ccc(-c4cn([C@H](C(=O)N5C[C@H](O)C[C@H]5C(=O)N[C@@H](CO)c5ccc(-c6scnc6C)cc5)C(C)C)nn4)cc3)c2n1 (atropisomer, axis not shown) [Example 20]	68 nM	48 nM		
CO[C@@H](C)COc1nc(NC2CN(C(=O)O[C@H]3C[C@@H](N(C)C)C3)C2)c2cc(C3CC3)c(-c3c(C)c(F)cc4[nH]ncc34)c(OCc3ccc(-c4cn([C@H](C(=O)N5C[C@H](O)C[C@H]5C(=O)N[C@@H](CO)c5ccc(-n6cncn6)cc5)C(C)C)nn4)cc3)c2n1 (atropisomer, axis not shown; (M)) [Example 2, (1s,3R)-3-(dimethylamino)cyclobutyl 3-({(7M)-6-cyclopropyl-7-(6-fluoro-5-methyl-1H-indazol-4-yl)-8-{[4-(1-{(2S)-1-[(2S,4R)-4-hydroxy-2({(1R)-2-hydroxy-1-[4-(1H-1,2,4-triazol-1-yl)phenyl]ethyl}carbamoyl)pyrrolidin-1-yl]-3-methyl-1-oxobutan-2-yl}-1H-1,2,3-triazol-4-yl)phenyl]methoxy}-2-[(2S)-2-methoxypropoxy]quinazolin-4-yl}amino)azetidine-1-carboxylate]	11 nM	18 nM		

The next lines start with results.

IC50 [1, 3]	DC50 [2]	Dmax ([2]; PaTu 8902, RAS G12V, read-out: Dmax (degradation rate at the concentration with highest degradation activity))	Compound	IC50 [1]
15 nM	19 nM		CO[C@@H](C)COc1nc(NC2CN(C(=S)N3CC(CN(C)C)C3)C2)c2cc(C3CC3)c(-c3c(C)c(F)cc4[nH]ncc34)c(OCc3ccc(-c4cn([C@H](C(=O)N5C[C@H](O)C[C@H]5C(=O)N[C@@H](CO)c5ccc(-n6cncn6)cc5)C(C)C)nn4)cc3)c2n1 (atropisomer, axis not shown) [Example 26]	
16 nM	41 nM		CO[C@@H](C)COc1nc(OC2CN(C(=O)NCCN(C)C)C2)c2cc(C3CC3)c(-c3c(C)c(F)cc4[nH]ncc34)c(OCc3ccc(-c4cn([C@H](C(=O)N5C[C@H](O)C[C@H]5C(=O)N[C@@H](CO)c5ccc(-c6scnc6C)cc5)C(C)C)nn4)cc3)c2n1 (atropisomer, axis not shown) [Example 17]	
9 nM	112 nM	62%	CO[C@@H](C)COc1nc(N[C@H]2C[C@H](OCCN(C)C)C2)c2cc(C3CC3)c(-c3c(C)c(F)cc4[nH]ncc34)c(OCc3ccc(-c4cn([C@H](C(=O)N5C[C@H](O)C[C@H]5C(=O)N[C@@H](CO)c5ccc(-c6scnc6C)cc5)C(C)C)nn4)cc3)c2n1 (atropisomer, axis not shown) [Example 23]	
29 nM	30 nM		CO[C@@H](C)COc1cc(OC2CN(C(=O)CCCN(C)C)C2)c2cc(C3CC3)c(-c3c(C)c(F)cc4[nH]ncc34)c(OCc3ccc(-c4cn([C@H](C(=O)N5C[C@H](O)C[C@H]5C(=O)N[C@@H](CO)c5ccc(-n6cncn6)cc5)C(C)C)nn4)cc3)c2n1 (atropisomer, axis not shown; (M)) [Example 41, (4R)-1-[(2S)-2-(4-{4-[({(7M)-6-cyclopropyl-4-({1-[4-(dimethylamino)butanoyl]azetidin-3-yl}oxy)-7-(6-fluoro-5-methyl-1H-indazol-4-yl)-2-[(2S)-2-methoxypropoxy]quinolin-8-yl}oxy)methyl]phenyl}-1H-1,2,3-triazol-1-yl)-3-methylbutanoyl]-4-hydroxy-N-{(1R)-2-hydroxy-1-[4-(1H-1,2,4-triazol-1-yl)phenyl]ethyl}-L-prolinamide]	
126 nM	89 nM		Cc1ncsc1-c1ccc([C@H](CO)NC(=O)[C@@H]2C[C@@H](O)CN2C(=O)[C@H](C(C)C)n2cc(-c3ccc(COc4c(-c5c(C)c(F)cc6[nH]ncc56)c(C5CC5)cc5c(NC6CN(c7ncccn7)C6)nc(OC6CCOCC6)nc45)cc3)nn2)cc1 [Example 15, (4R)-1-[(2S)-2-{4-[4-({[(7M)-6-cyclopropyl-7-(6-fluoro-5-methyl-1H-indazol-4-yl)-2-[(oxan-4-yl)oxy]-4-{[1-(pyrimidin-2-yl)azetidin-3-yl]amino}quinazolin-8-yl]oxy}methyl)phenyl]-1H-1,2,3-triazol-1-yl}-3-methylbutanoyl]-4-hydroxy-N-{(1R)-2-hydroxy-1-[4-(4-methyl-1,3-thiazol-5-yl)phenyl]ethyl}-L-prolinamide]	
